According to a polymer gas permeability compilation:

| SMILES | CH4 permeability [Barrer] | CO2 permeability [Barrer] | H2 permeability [Barrer] | N2 permeability [Barrer] | O2 permeability [Barrer] |
| --- | --- | --- | --- | --- | --- |
| *C(=C(*)c1ccc2c(c1)C(C)(C)c1ccccc1-2)c1cccc(F)c1 (repeat unit) | 11000 | 18000 | 9900 | 4200 | 5900 |
| *C(=C(*)c1ccc2c(c1)C(C)(C)c1ccccc1-2)c1ccccc1 (repeat unit) | 9100 | 17000 | 8100 | 3300 | 4800 |
| *C(=C(*)c1ccc2c(c1)CCC2)c1ccc([Si](C)(C)C)cc1 (repeat unit) | 470 | 2000 | 1100 | 170 | 450 |
| *C(=C(*)c1ccc2c(c1)CCC2)c1ccccc1 (repeat unit) | 60 | 390 | 360 | 30 | 86 |
| *c1ccc(N(c2ccccc2)c2ccc(N3C(=O)c4ccc(C(c5ccc6c(c5)C(=O)N(*)C6=O)(C(F)(F)F)C(F)(F)F)cc4C3=O)cc2)cc1 (repeat unit) | 0.08 | 4.73 |  | 0.08 | 0.69 |
| *c1ccc(N2C(=O)c3ccc(C(c4ccc5c(c4)C(=O)N(*)C5=O)(C(F)(F)F)C(F)(F)F)cc3C2=O)cc1 (repeat unit) | 1.31 | 62 | 107 | 2.57 | 12.7 |
| *c1ccc(Oc2ccc(-n3c(=O)c4cc5c(=O)n(*)c(=O)c5cc4c3=O)cc2)cc1 (repeat unit) | 0.0682 | 2.73 | 7.52 | 0.0995 | 0.591 |
| *c1ccc(Oc2ccc(C(c3ccc(Oc4ccc(-n5c(=O)c6cc7c(=O)n(*)c(=O)c7cc6c5=O)cc4)cc3)(C(F)(F)F)C(F)(F)F)cc2)cc1 (repeat unit) | 0.499 | 14.7 | 29.1 | 0.8 | 3.94 |
| *c1ccc(Oc2ccc(C(c3ccc(Oc4ccc(N5C(=O)c6ccc(-c7ccc8c(c7)C(=O)N(*)C8=O)cc6C5=O)cc4)cc3)(C(F)(F)F)C(F)(F)F)cc2)cc1 (repeat unit) | 0.18 | 6.14 | 17.3 | 0.275 | 1.6 |
| *c1ccc(Oc2ccc(C(c3ccc(Oc4ccc(N5C(=O)c6ccc(C(=O)c7ccc8c(c7)C(=O)N(*)C8=O)cc6C5=O)cc4)cc3)(C(F)(F)F)C(F)(F)F)cc2)cc1 (repeat unit) | 0.105 | 4.67 | 16.1 | 0.195 | 1.14 |
| *c1ccc(Oc2ccc(C(c3ccc(Oc4ccc(N5C(=O)c6ccc(C(=O)c7ccc8c(c7)C(=O)N(*)C8=O)cc6C5=O)cc4C(F)(F)F)cc3)(C(F)(F)F)C(F)(F)F)cc2)c(C(F)(F)F)c1 (repeat unit) | 0.189 | 8.04 | 24.6 | 0.37 | 2.44 |
| *c1ccc(Oc2ccc(C(c3ccccc3)(c3ccccc3)c3ccc(Oc4ccc(*)cc4)cc3)cc2)cc1 (repeat unit) | 0.14 | 9.57 |  | 0.47 | 2.26 |
| *c1ccc(Oc2ccc(C3(c4ccc(Oc5ccc(N6C(=O)c7ccc(C(c8ccc9c(c8)C(=O)N(*)C9=O)(C(F)(F)F)C(F)(F)F)cc7C6=O)c(C)c5)cc4)OC(=O)c4ccccc43)cc2)cc1C (repeat unit) | 0.56 | 21.4 |  | 1.1 | 5.71 |
| *c1ccc(Oc2ccc(C3(c4ccc(Oc5ccc(N6C(=O)c7ccc(C(c8ccc9c(c8)C(=O)N(*)C9=O)(C(F)(F)F)C(F)(F)F)cc7C6=O)cc5)cc4)c4ccccc4-c4ccccc43)cc2)cc1 (repeat unit) | 0.69 | 19.9 | 61.3 | 1.26 | 4.88 |
| *c1ccc(Oc2ccc(C3(c4ccc(Oc5ccc(N6C(=O)c7ccc(C(c8ccc9c(c8)C(=O)N(*)C9=O)(C(F)(F)F)C(F)(F)F)cc7C6=O)cc5C(F)(F)F)cc4)c4ccccc4-c4ccccc43)cc2)c(C(F)(F)F)c1 (repeat unit) | 2.43 | 61.8 | 151 | 5.2 | 20 |
| *c1ccc(Oc2ccc(N3C(=O)c4cc(Oc5ccc(C(C)(C)C)cc5)c(-c5cc6c(cc5Oc5ccc(C(C)(C)C)cc5)C(=O)N(*)C6=O)cc4C3=O)cc2)cc1 (repeat unit) | 3.16 | 85.6 |  | 2.95 | 11.3 |
| *c1ccc(Oc2ccc(N3C(=O)c4cc(Oc5ccccc5)c(-c5cc6c(cc5Oc5ccccc5)C(=O)N(*)C6=O)cc4C3=O)cc2)cc1 (repeat unit) | 0.85 | 30.1 |  | 0.83 | 3.59 |
| *c1ccc(Oc2ccc(N3C(=O)c4ccc(-c5ccc6c(c5)C(=O)N(*)C6=O)cc4C3=O)cc2)cc1 (repeat unit) | 0.018 | 0.921 | 3.5 | 0.0215 | 0.174 |
| *c1ccc(Oc2ccc(N3C(=O)c4ccc(C(=O)c5ccc6c(c5)C(=O)N(*)C6=O)cc4C3=O)cc2)cc1 (repeat unit) | 0.0109 | 0.625 | 4.19 | 0.0178 | 0.18 |
| *c1ccc(Oc2ccc(N3C(=O)c4ccc([Si](C)(C)c5ccc6c(c5)C(=O)N(*)C6=O)cc4C3=O)cc2)cc1 (repeat unit) | 0.161 | 3.31 | 9.83 | 0.104 | 0.636 |
| *c1ccc(Oc2ccc(Oc3ccc(Oc4ccc(N5C(=O)c6ccc(-c7ccc8c(c7)C(=O)N(*)C8=O)cc6C5=O)cc4)cc3)cc2)cc1 (repeat unit) | 0.0305 | 1.25 |  | 0.0392 | 0.256 |
| *c1ccc(Oc2ccc(S(=O)(=O)c3ccc(Oc4ccc(N5C(=O)c6ccc(-c7ccc8c(c7)C(=O)N(*)C8=O)cc6C5=O)cc4)cc3)cc2)cc1 (repeat unit) | 0.0397 | 1.85 |  | 0.0544 | 0.368 |
| *c1ccc(Oc2ccc3ccccc3c2-c2c(Oc3ccc(N4C(=O)c5ccc(C(c6ccc7c(c6)C(=O)N(*)C7=O)(C(F)(F)F)C(F)(F)F)cc5C4=O)cc3)ccc3ccccc23)cc1 (repeat unit) | 0.22 | 15 | 21.1 | 0.4 | 2.56 |
| *c1ccc(Oc2cccc(N3C(=O)c4ccc(C(c5ccc6c(c5)C(=O)N(*)C6=O)(C(F)(F)F)C(F)(F)F)cc4C3=O)c2)cc1 (repeat unit) | 0.125 | 6.11 | 23.7 | 0.259 | 1.57 |
| *c1ccc(Sc2ccc(N3C(=O)c4ccc(C(c5ccc6c(c5)C(=O)N(*)C6=O)(C(F)(F)F)C(F)(F)F)cc4C3=O)cc2)cc1 (repeat unit) | 0.66 | 23.1 |  | 0.87 | 4.66 |
